This is an account of results in US8735398B2 (Bristol-Myers Squibb Company, priority 2009, dated 2014).

Molecules are shown by their SMILES.

One assay has as its system HCV 1b genotype. Nature of the assay: HCV replicon assay (HCV-neo replicon cells, wild-type). In kind it is cell-based, Hepatitis C virus. As to conditions: HCV 1b genotype replicon; class symbol; read-out: EC50 Range against HCV 1b. How it is done: An HCV Replicon assay was utilized in the present disclosure, and was prepared, conducted and validated as described in commonly owned PCT/US2006/022197 and in O'Boyle et al., Antimicrob. Agents Chemother, 49(4):1346-1353 (April 2005). Assay methods incorporating luciferase reporters have also been used as described (Apath.com).
HCV-neo replicon cells and replicon cells containing resistance substitutions in the NS5A region were used to test the currently described family of compounds.
The compounds were determined to have differing degrees of reduced inhibitory activity on cells containing mutations vs. the corresponding inhibitory potency against wild-type cells. Thus, the compounds of the present disclosure can be effective in inhibiting the function of the HCV NS5A protein and are understood to be as effective in combinations as previously described in application PCT/US2006/022197 and commonly owned WO 04/014852. It should be understood that the compounds of the present disclosure can inhibit multiple genotypes of HCV. […] In one embodiment, compounds of the present disclosure are inhibitory versus 1a, 1b, 2a, 2b, 3a, 4a, and 5a genotypes.
On the technique in general: In antiviral work, replicon cells carry a viral genome segment that copies itself.
In the case of `CC(C)(C)OC(=O)N1CCCC1(Cc1ccccc1)C(=O)N1CCC[C@H]1C(=O)Nc1ccc(-c2cnc(-c3ccc(NC(=O)[C@@H]4CCCN4C(=O)C4(Cc5ccccc5)CCCN4C(=O)OC(C)(C)C)cc3)o2)cc1` (stereo partly drawn) [Example D-33, di-tert-butyl 2,2′-(1,3-oxazole-2,5-diylbis(4,1-phenylenecarbamoyl(2S)-2,1-pyrrolidinediylcarbonyl))bis(2-benzyl-1-pyrrolidinecarboxylate)], the EC50 lay in the range of 1 to 10 µM.
Same read-out and setting: for `CC(O)(C(=O)N1C(C(=O)Nc2ccc(-c3cnc(-c4ccc(NC(=O)C5CC6CC6N5C(=O)C(C)(O)c5ccccc5)cc4)o3)cc2)CC2CC21)c1ccccc1` [CB-8, (1S,3S,5S,1′S,3′S,5′S)-N,N′-(1,3-oxazole-2,5-diyldi-4,1-phenylene)bis(2-((2S)-2-hydroxy-2-phenylpropanoyl)-2-azabicyclo[3.1.0]hexane-3-carboxamide)] the value was < 0.00457 µM.

The assay is the same for the next values; noted with them: HCV 1b genotype replicon; read-out: EC50 1b.
For `CC(O)(C(=O)N1C(C(=O)Nc2ccc(-c3cnc(-c4ccc(NC(=O)C5CC6CC6N5C(=O)C(C)(O)c5ccccc5)cc4)o3)cc2)CC2CC21)c1ccccc1` [CB-8, (1S,3S,5S,1′S,3′S,5′S)-N,N′-(1,3-oxazole-2,5-diyldi-4,1-phenylene)bis(2-((2S)-2-hydroxy-2-phenylpropanoyl)-2-azabicyclo[3.1.0]hexane-3-carboxamide)], the EC50 is < 0.005 µM.

The same assay, now with this note: Hepatitis C virus, HCV 1b genotype replicon; class symbol; read-out: EC50 Range against HCV 1b.
With `O=C(Nc1ccc(-c2cc(-c3ccc(NC(=O)[C@@H]4CCCN4C(=O)OCc4ccccc4)cc3)[nH]n2)cc1)[C@@H]1CCCN1C(=O)OCc1ccccc1` [OL-26, (2S,2′S)-2,2′-[1H-pyrazole-3,5-diylbis(4,1-phenyleneiminocarbonyl)]bis-1-pyrrolidinecarboxylic acid, bis(phenylmethyl) ester], the EC50 was 0.00457 to 0.099 µM.
For the molecule `CCc1ccccc1C(=O)N1CC=C[C@H]1C(=O)Nc1ccc(-c2ncc(-c3ccc(NC(=O)[C@@H]4CCCN4C(C)=O)cc3)o2)cc1` [Example D-2, (2S)-N-[4-[5-[4-[[[(2S)-1-acetyl-2-pyrrolidinyl]carbonyl]amino]phenyl]-2-oxazolyl]phenyl]-1-(2-ethylbenzoyl)-2,5-dihydro-1H-pyrrole-2-carboxamide], the EC50 is 0.1 to 0.999 µM.
Take `CC(=O)N1CCC[C@H]1C(=O)Nc1ccc(-c2cc(-c3ccc(NC(=O)[C@@H]4CCCN4C(C)=O)cc3)[nH]n2)cc1` [OL-29, (2S,2′S)-N,N′-(1H-pyrazole-3,5-diyldi-4,1-phenylene)bis(1-acetyl-2-pyrrolidinecarboxamide)]: the EC50 lay in the range of 1 to 10 µM.
Still for that read-out and setting: for `CCOC(=O)Cc1nc(-c2ccc(NC(=O)[C@@H]3CCCN3C(=O)OCc3ccccc3)cc2)c(-c2ccc(NC(=O)[C@@H]3CCCN3C(=O)OCc3ccccc3)cc2)o1` [OL-2, 4,5-bis[4-[[[(2S)-1-[(phenylmethoxy)carbonyl]-2-pyrrolidinyl]carbonyl]amino]phenyl]-2-oxazoleacetic acid, ethyl ester] the value was 1 to 10 µM; for `CC(=O)N1CCC[C@H]1C(=O)Nc1ccc(-c2cnc(-c3ccc(NC(=O)[C@@H]4CCCN4C(C)=O)cc3)o2)cc1` [JG-11, (2S,2′S)-N,N′-(1,3-oxazole-2,5-diyldi-4,1-phenylene)bis(1-acetyl-2-pyrrolidinecarboxamide)], 1 to 10 µM.
The same measure, in the same setting: for `O=C(Nc1ccc(-c2cc(-c3ccc(NC(=O)[C@@H]4C=CCN4C(=O)C4CCC4)cc3)[nH]n2)cc1)[C@@H]1C=CCN1C(=O)C1CCC1` [OL-38, (2S,2′S)-N,N′-(1H-pyrazole-3,5-diyldi-4,1-phenylene)bis(1-(cyclobutylcarbonyl)-2,5-dihydro-1H-pyrrole-2-carboxamide)] the value was 1 to 10 µM; for `CC(=O)N1CCC[C@H]1C(=O)Nc1ccc(-c2cc(-c3ccc(NC(=O)[C@@H]4CCCN4C(=O)Cc4ccccc4)cc3)n[nH]2)cc1` [OL-36, (2S)-1-acetyl-N-(4-(3-(4-((((2S)-1-(phenylacetyl)-2-pyrrolidinyl)carbonyl)amino)phenyl)-1H-pyrazol-5-yl)phenyl)-2-pyrrolidinecarboxamide], 0.1 to 0.999 µM.
Still for that read-out and setting: for `O=C(Nc1ccc(-c2nnc(-c3ccc(NC(=O)[C@@H]4CCCCN4C(=O)OCc4ccccc4)cc3)o2)cc1)[C@@H]1CCCCN1C(=O)OCc1ccccc1` [RK-4, dibenzyl (2S,2′S)-2,2′-(1,3,4-oxadiazole-2,5-diylbis(4,1-phenylenecarbamoyl))di(1-piperidinecarboxylate)] the value was 0.1 to 0.999 µM.
For `COc1cccc2c(C(=O)N3CCC[C@H]3C(=O)Nc3ccc(-c4nnc(-c5ccc(NC(=O)[C@@H]6CCCN6C(=O)c6nc(Cl)cc7c(OC)cccc67)cc5)o4)cc3)nc(Cl)cc12` [RK-32, (2S,2′S)-N,N′-(1,3,4-oxadiazole-2,5-diyldi-4,1-phenylene)bis(1-((3-chloro-5-methoxy-1-isoquinolinyl)carbonyl)-2-pyrrolidinecarboxamide)], the EC50 is 0.1 to 0.999 µM.
The same measure, in the same setting: for `O=C(O)Cc1nc(-c2ccc(NC(=O)[C@@H]3CCCN3C(=O)OCc3ccccc3)cc2)c(-c2ccc(NC(=O)[C@@H]3CCCN3C(=O)OCc3ccccc3)cc2)o1` [OL-3, 4,5-bis[4-[[[(2S)-1-[(phenylmethoxy)carbonyl]-2-pyrrolidinyl]carbonyl]amino]phenyl]-2-oxazoleacetic acid] the value was 1 to 10 µM.
Same read-out and setting: next, `O=C(Nc1cccc(-c2ccc(-c3cccc(NC(=O)[C@@H]4CCCN4C(=O)Cc4ccccc4)c3)s2)c1)[C@@H]1CCCN1C(=O)Cc1ccccc1` [OL-25, (2S,2′S)-N,N′-(2,5-thienediyldi-3,1-phenylene)bis[1-(phenylacetyl)-2-pyrrolidinecarboxamide]]: 0.00457 to 0.099 µM.

Still in this assay, the particulars now being: Hepatitis C virus, HCV 1b genotype replicon; class symbols; read-out: EC50 Range against HCV 1b.
Consider `O=C(Nc1ccc(-c2cnc(-c3ccc(NC(=O)[C@@H]4C[C@@H](O)CN4C(=O)C4CCC4)cc3)o2)cc1)[C@@H]1C[C@@H](O)CN1C(=O)C1CCC1` [XY-46, (2S,4R,2′S,4′R)-N,N′-(1,3-oxazole-2,5-diyldi-4,1-phenylene)bis(1-(cyclobutylcarbonyl)-4-hydroxy-2-pyrrolidinecarboxamide)], for which the concentration for a half-maximal effect (EC50) was in the range of 0.1 to 0.999 µM.
The same measure, in the same setting: for `CO[C@@H](C(=O)N1CCC[C@H]1C(=O)Nc1ccc(-c2cnc(-c3ccc(NC(=O)[C@@H]4CCCN4C(=O)[C@H](OC)c4ccccc4)cc3)o2)cc1)c1ccccc1` [XY-26, (2S,2′S)-N,N′-(1,3-oxazole-2,5-diyldi-4,1-phenylene)bis(1-((2R)-2-methoxy-2-phenylacetyl)-2-pyrrolidinecarboxamide)] the value was 1 to 10 µM; for `Cc1noc(C)c1C(=O)N1C[C@H](O)C[C@H]1C(=O)Nc1ccc(-c2cnc(-c3ccc(NC(=O)[C@@H]4C[C@@H](O)CN4C(=O)c4c(C)noc4C)cc3)o2)cc1` [XY-53, (2S,4R,2′S,4′R)-N,N′-(1,3-oxazole-2,5-diyldi-4,1-phenylene)bis(1-((3,5-dimethyl-4-isoxazolyl)carbonyl)-4-hydroxy-2-pyrrolidinecarboxamide)], 1 to 10 µM; for `Cn1cncc1C(O)C(=O)N1CCC[C@H]1C(=O)Nc1ccc(-c2cnc(-c3ccc(NC(=O)[C@@H]4CCCN4C(=O)C(O)c4cncn4C)cc3)o2)cc1` (stereo partly drawn) [JR-3, (2S,2′S)-N,N′-(2,5-oxazolediyldi-4,1-phenylene)bis[1-[hydroxy(1-methyl-1H-imidazol-5-yl)acetyl]-2-pyrrolidinecarboxamide]], 0.1 to 0.999 µM.
Same read-out and setting: for `Cc1ncccc1C(=O)N1CCC[C@H]1C(=O)Nc1ccc(-c2cnc(-c3ccc(NC(=O)[C@@H]4CCCN4C(=O)c4cccnc4C)cc3)o2)cc1` [XY-30, (2S,2′S)-N,N′-(1,3-oxazole-2,5-diyldi-4,1-phenylene)bis(1-((2-methyl-3-pyridinyl)carbonyl)-2-pyrrolidinecarboxamide)] the value was 1 to 10 µM; for `C[C@H](NC(=O)c1cc(Cl)ccn1)C(=O)Nc1ccc(-c2nnc(-c3ccc(NC(=O)[C@H](C)NC(=O)c4cc(Cl)ccn4)cc3)o2)cc1` [RK-37, N,N′-(1,3,4-oxadiazole-2,5-diylbis(4,1-phenyleneimino((2S)-1-oxo-1,2-propanediyl)))bis(4-chloro-2-pyridinecarboxamide)], 1 to 10 µM.
The same measure, in the same setting: for `COc1ccc(C(=O)N2CCC[C@H]2C(=O)Nc2ccc(-c3cnc(-c4ccc(NC(=O)[C@@H]5CCCN5C(=O)c5ccc(OC)cc5)cc4)o3)cc2)cc1` [XY-29, (2S,2′S)-N,N′-(1,3-oxazole-2,5-diyldi-4,1-phenylene)bis(1-(4-methoxybenzoyl)-2-pyrrolidinecarboxamide)] the value was 0.1 to 0.999 µM; for `CC(C(=O)N1CCC[C@H]1C(=O)Nc1ccc(-c2cnc(-c3ccc(NC(=O)[C@@H]4CCCN4C(=O)C(C)N4C(=O)C5C6CCC(C6)C5C4=O)cc3)o2)cc1)N1C(=O)C2C3CCC(C3)C2C1=O` (stereo partly drawn) [JR-18, (2S,2′S)-N,N′-(2,5-oxazolediyldi-4,1-phenylene)bis[1-[2-(octahydro-1,3-dioxo-4,7-methano-2H-isoindol-2-yl)-1-oxopropyl]-2-pyrrolidinecarboxamide]], 1 to 10 µM.
As to `O=C(Nc1ccc(-c2cnc(-c3ccc(NC(=O)[C@@H]4CCCN4C(=O)c4ccco4)cc3)o2)cc1)[C@@H]1CCCN1C(=O)c1ccco1` [XY-37, (2S,2′S)-N,N′-(1,3-oxazole-2,5-diyldi-4,1-phenylene)bis(1-(2-furoyl)-2-pyrrolidinecarboxamide)], the EC50 was in the range of 0.1 to 0.999 µM.
On the same count and under the same terms, for `O=C(Nc1ccc(-c2cnc(-c3ccc(NC(=O)[C@@H]4CCCN4C(=O)c4cccs4)cc3)o2)cc1)[C@@H]1CCCN1C(=O)c1cccs1` [XY-1, (2S,2′S)-N,N′-(1,3-oxazole-2,5-diyldi-4,1-phenylene)bis(1-(2-thienylcarbonyl)-2-pyrrolidinecarboxamide)] the value was 0.1 to 0.999 µM.

The assay is the same for the next values; noted with them: Hepatitis C virus, HCV 1b genotype replicon; read-out: EC50 1b.
As for `CC(=O)N1CCC[C@H]1C(=O)Nc1ccc(-c2cc(-c3ccc(NC(=O)[C@@H]4CCCN4C(C)=O)cc3)[nH]n2)cc1` [OL-29, (2S,2′S)-N,N′-(1H-pyrazole-3,5-diyldi-4,1-phenylene)bis(1-acetyl-2-pyrrolidinecarboxamide)], the EC50 turned out to be 4.55 µM.
With `Cc1noc(C)c1C(=O)N1C[C@H](O)C[C@H]1C(=O)Nc1ccc(-c2cnc(-c3ccc(NC(=O)[C@@H]4C[C@@H](O)CN4C(=O)c4c(C)noc4C)cc3)o2)cc1` [XY-53, (2S,4R,2′S,4′R)-N,N′-(1,3-oxazole-2,5-diyldi-4,1-phenylene)bis(1-((3,5-dimethyl-4-isoxazolyl)carbonyl)-4-hydroxy-2-pyrrolidinecarboxamide)], the EC50 came to 8.06 µM.
Same read-out and setting: for `O=C(Nc1ccc(-c2cc(-c3ccc(NC(=O)[C@@H]4C=CCN4C(=O)C4CCC4)cc3)[nH]n2)cc1)[C@@H]1C=CCN1C(=O)C1CCC1` [OL-38, (2S,2′S)-N,N′-(1H-pyrazole-3,5-diyldi-4,1-phenylene)bis(1-(cyclobutylcarbonyl)-2,5-dihydro-1H-pyrrole-2-carboxamide)] the value was 10 µM.

As a reminder, the EC50 is the concentration giving half of the maximal effect.
